# Results as given in patent US6610676B1, “Nitrate esters of corticoid compounds and pharmaceutical applications thereof” (Nicox S.A., priority 1996, dated 2003).
# Marks after values point to notes of the source that are not given here.
# What was measured:
# nitroxysynthetase = experiment: LPS-induced nitroxysynthetase activity in rat neutrophils and stomach; type: in vivo, rats; conditions: 10 mg/kg i.p., LPS 5 mg/kg i.v., 4 h; compared to vehicle group (vehicle = 100)
# [1] = test system: conscious Long Evans rats; experiment: Cardiovascular parameters in conscious rats; type: in vivo; conditions: 10 mg/kg s.c., 4 h after treatment; for BLOOD PRESSURE: compared to vehicle group (101 ± 2 mm Hg); for HEART RATE (%): compared to vehicle group (324 ± 7 beats per minute)
# Protocol: The effect of the test products on some cardiovascular parameters was studied in conscious Long Evans rats (350 to 450 g) which were appropriately monitored, as described by Gardiner et al.: “Influence of dexamethasone on the regional haemodynamic responses to lipopolysaccharide in conscious rats: effect of the non-selective endothelin antagonist: SB 209670”, Br.J. Pharmacology 117, 49P, 1996. The animals were treated with the vehicle (physiologic saline solution, 0,9% sodium chloride, s.c.) subcutaneous hydrocortisone or HCN (10 mg/kg). Heart rate and blood pressure were recorded 4 hours after treatment.
# [2] = test system: parietal bone from rat foetus; experiment: Bone toxicity, bone tissue grown in vitro; type: cell-based; conditions: 10 nmol (table), 96 h incubation, compared to initial value
# Protocol: Bone tissues (parietal bone from rat foetus) grown in vitro according to the method described by Doherty et al. (“The effect of glucocorticoids on osteoblast function. The effect of corticosterone on osteoblast, expression of beta-I integrins”, Journal of Bone and Joint Surgery, Series A77/3, 396-404, 1995) was used. […]
# Ninety six hours later calcium content and bone dry weight were measured.
# [3] = test system: male rats of Lewis strain; experiment: Antiarthritic activity, adjuvant arthritis induced by Mycobacterium butyricum; type: in vivo; conditions: day 21, inhibition of arthritis score vs vehicle group
# Male Sprague-Dawley rats = experiment: Gastric tolerability (safety); type: in vivo; conditions: 24 h, lesion scale 0 = absent to 4 = severe and numerous ulcers
# Protocol: Male Sprague-Dawley rats fasted for 24 hours were treated with 5 to 10 mg/kg of intraperitoneal hydrocortisone or HCN.
# Twenty-four hours later the animals were sacrified, the stomach was removed and tissue was grossly examined for the presence of lesions as described by Del Soldato et al.: “The influence of fasting and cimetidine on the relationship between ulcerogenic and anti-inflammatory properties of […]”, Br.J.Pharmacol. 67, 33-37, 1979. The degree of severity of the disease was evaluated according to common methods and expressed as arbitrary values.
# Male Wistar rats = experiment: Angiostatic activity, rat sponge model, 133Xe clearance; type: in vivo; conditions: for SPLEEN weight / THYMUS weight: 10 mg/kg s.c. day 1 to 13, day 14; for 133Xe clearance (%): 10 mg/kg s.c. day 1 to 13, measured at day 14, clearance for 6 minutes as % of initial value
# mice of the Swiss strain = experiment: Acute toxicity study, single oral dose; type: in vivo; conditions: single oral dose 50 mg/kg, 10 Swiss mice, 14 days observation
# Description: The acute toxicity of the product from Example 1A was roughly evaluated by orally administering a single dose of substance to a group of 10 mice of the Swiss strain.
# Death incidence and appearance of toxic symptoms were observed during a period of 14 days after the compound administration.
SMILES,NITROXYSYNTHETASE ACTIVITY (nitroxysynthetase),BLOOD PRESSURE [1],HEART RATE (%) [1],Calcium Δ% [2],DRY TISSUE WEIGHT Δ% [2],ANTIARTHRITIC ACTIVITY (%) ([3]; 5 mg/kg i.p.),ANTIARTHRITIC ACTIVITY (%) ([3]; 10 mg/kg i.p.),GASTRIC TOLERABILITY (Male Sprague-Dawley rats; 5 mg/kg i.p.),GASTRIC TOLERABILITY (Male Sprague-Dawley rats; 10 mg/kg i.p.),SPLEEN weight (Male Wistar rats),THYMUS weight (Male Wistar rats),133Xe clearance (%) (Male Wistar rats),Acute toxicity (death incidence and toxic symptoms) (mice of the Swiss strain)
"C[C@]12CCC(=O)C=C1CC[C@@H]1[C@@H]2[C@@H](O)C[C@@]2(C)[C@H]1CC[C@]2(O)C(=O)CO [HYDROCORTISONE, hydrocortisone, reference compound]",55* per cent,115* per-cent,89* %,70° %,95° %,40%,55%,2.0 arbitrary values,3.5 arbitrary values,642 ± 32 mg,185 ± 17 mg,33%,–
"C[C@]12CCC(=O)C=C1CC[C@@H]1[C@@H]2[C@@H](O)C[C@@]2(C)[C@H]1CC[C@]2(O)C(=O)COC(=O)CCCO[N+](=O)[O-] [HCN, Hydrocortisone 4-Nitroxybutanoate]",62* per cent,103 per-cent,98%,287%,149%,45%,62%,0.5* arbitrary values,1.2* arbitrary values,673 ± 38 mg,297 ± 31 mg,22* %,no sign of apparent toxicity
